Results published in patent US20060093617A1, “Peptides for inducing a CTL and/or HTL response to hepatitis C virus” (Innogenetics, N.V., priority 2004, published 2006).
Where a SMILES comes first, the peptide text is derived from it.

Key:
DRB1*0101 = target: T1, DRB1*0101 (Homo sapiens, UniProt P01903+P01911, A100R/D57E/F55L/F60I/F76Y/I96L/L162R/M171V/P40L/Q125E/R42F/V115G/Y59C); assay: Competition binding assay using soluble HLA class II
T1 construct: endogenous in cells; host or cells: cell lysate

HLA-Cw06 = target: T2, HLA-Cw06 (Homo sapiens, UniProt P10321, A176E/A330V/C350S/L171W/L180W/L218V/M285V/M309V/M331V/N104K/P208H/Q277E/Q291P/R121W/R243W/S101N/S123Y/S297R/T329A/T363A/V319A/V328M); assay: HLA class I competition cell-based binding assay
T2 construct: endogenous in cells

| Structure (SMILES) | IC50 (DRB1*0101) [nM] | Ki (HLA-Cw06) [µM] |
| --- | --- | --- |
| CC(C)C[C@H](NC(=O)[C@H](CCCCN)NC(=O)[C@H](CCCNC(=N)N)NC(=O)[C@H](CC(C)C)NC(=O)[C@H](CS)NC(=O)[C@H](CO)NC(=O)[C@H](C)N)C(=O)NCC(=O)N[C@H](C(=O)N1CCC[C@H]1C(=O)N1CCC[C@H]1C(=O)N[C@@H](CC(C)C)C(=O)N[C@@H](CCCNC(=N)N)C(=O)N[C@H](C(=O)N[C@@H](Cc1c[nH]c2ccccc12)C(=O)O)C(C)C)C(C)C | 4.9 | – |
| CC[C@H](C)[C@H](NC(=O)[C@H](CC(C)C)NC(=O)[C@H](CC(=O)O)NC(=O)[C@H](C)NC(=O)[C@@H](N)CC(=O)O)C(=O)N[C@@H](CCC(=O)O)C(=O)N[C@@H](C)C(=O)N[C@@H](CC(N)=O)C(=O)N[C@@H](CC(C)C)C(=O)N[C@@H](CC(C)C)C(=O)N[C@@H](Cc1c[nH]c2ccccc12)C(=O)N[C@@H](CCCNC(=N)N)C(=O)N[C@@H](CCC(N)=O)C(=O)N[C@@H](CCC(=O)O)C(=O)N[C@@H](CCSC)C(=O)O | 574 | – |
| CSCC[C@H](NC(=O)[C@H](CC(C)C)NC(=O)[C@H](C)NC(=O)[C@H](CC(=O)O)NC(=O)[C@@H](NC(=O)[C@H](C)NC(=O)[C@@H](NC(=O)[C@@H](NC(=O)[C@@H](NC(=O)[C@@H](NC(=O)[C@@H](N)CC(=O)O)C(C)C)C(C)C)C(C)C)C(C)C)[C@@H](C)O)C(=O)N[C@H](C(=O)NCC(=O)N[C@@H](Cc1ccc(O)cc1)C(=O)N[C@H](C(=O)O)[C@@H](C)O)[C@@H](C)O | 456 | – |
| CC[C@H](C)[C@H](NC(=O)[C@@H](NC(=O)[C@@H](N)CCC(=O)O)C(C)C)C(=O)N[C@@H](CCCCN)C(=O)NCC(=O)NCC(=O)N[C@@H](CCCNC(=N)N)C(=O)N[C@@H](Cc1c[nH]cn1)C(=O)N[C@@H](CC(C)C)C(=O)O | – | 12.8 |
| CC[C@H](C)[C@H](NC(=O)CNC(=O)[C@H](CCCNC(=N)N)NC(=O)[C@H](CCCNC(=N)N)NC(=O)CN)C(=O)N[C@@H](Cc1ccc(O)cc1)C(=O)N[C@@H](CCCNC(=N)N)C(=O)N[C@@H](Cc1ccccc1)C(=O)N[C@H](C(=O)O)C(C)C | – | 0.576 |
| CC(C)[C@H](NC(=O)[C@H](CCCNC(=N)N)NC(=O)[C@H](CCC(N)=O)NC(=O)CNC(=O)[C@@H]1CCCN1C(=O)[C@H](CO)NC(=O)[C@H](Cc1ccc(O)cc1)NC(=O)[C@H](CCC(N)=O)NC(=O)[C@H](Cc1ccccc1)NC(=O)CNC(=O)[C@H](Cc1ccc(O)cc1)NC(=O)[C@H](CO)NC(=O)[C@H](CO)NC(=O)CN)C(=O)N[C@@H](CCC(=O)O)C(=O)O | 11 | – |
| CC(C)C[C@H](NC(=O)[C@H](CC(N)=O)NC(=O)CNC(=O)[C@@H](NC(=O)[C@H](C)NC(=O)[C@H](Cc1ccc(O)cc1)NC(=O)[C@H](CC(N)=O)NC(=O)[C@@H](NC(=O)CN)C(C)C)[C@@H](C)O)C(=O)N1CCC[C@H]1C(=O)NCC(=O)N[C@@H](CS)C(=O)N[C@@H](CO)C(=O)N[C@@H](Cc1ccccc1)C(=O)N[C@@H](CO)C(=O)O | 4560 | – |
| CC(C)C[C@H](NC(=O)[C@@H](NC(=O)[C@H](C)NC(=O)[C@H](C)NC(=O)[C@@H](NC(=O)[C@H](CO)NC(=O)[C@@H]1CCCN1C(=O)[C@H](CC(N)=O)NC(=O)[C@H](CC(C)C)NC(=O)[C@@H](NC(=O)[C@H](CC(C)C)NC(=O)[C@@H](NC(=O)[C@H](CCCCN)NC(=O)[C@H](Cc1ccc(O)cc1)NC(=O)CN)C(C)C)C(C)C)C(C)C)[C@@H](C)O)C(=O)O | 8.4 | – |
| CC(C)C[C@H](NC(=O)[C@H](C)NC(=O)CNC(=O)[C@H](C)NC(=O)[C@@H](NC(=O)CNC(=O)[C@H](C)NC(=O)CNC(=O)[C@H](Cc1ccc(O)cc1)NC(=O)CNC(=O)[C@H](C)NC(=O)[C@@H](N)CC(C)C)C(C)C)C(=O)N[C@H](C(=O)N[C@@H](C)C(=O)N[C@@H](Cc1ccccc1)C(=O)O)C(C)C | 137 | – |
| CC(C)C[C@H](NC(=O)CNC(=O)[C@H](CCCNC(=N)N)NC(=O)[C@H](Cc1ccc(O)cc1)NC(=O)[C@H](Cc1ccc(O)cc1)NC(=O)[C@H](C)NC(=O)[C@@H](NC(=O)[C@H](C)NC(=O)[C@@H](N)CC(N)=O)C(C)C)C(=O)O | – | 10.8 |
| CC(C)C[C@H](NC(=O)[C@H](Cc1c[nH]cn1)NC(=O)[C@H](C)NC(=O)[C@@H](NC(=O)[C@H](CCC(N)=O)NC(=O)[C@H](Cc1ccccc1)NC(=O)[C@@H](NC(=O)[C@H](CCC(N)=O)NC(=O)[C@@H]1CCCN1)[C@@H](C)O)C(C)C)C(=O)N[C@@H](Cc1c[nH]cn1)C(=O)N[C@@H](C)C(=O)N1CCC[C@H]1C(=O)N[C@H](C(=O)NCC(=O)N[C@@H](CO)C(=O)O)[C@@H](C)O | 22 | – |
| CC(C)[C@H](NC(=O)CNC(=O)[C@H](CCCNC(=N)N)NC(=O)[C@@H](NC(=O)[C@H](CS)NC(=O)[C@@H](NC(=O)[C@H](C)NC(=O)[C@H](C)NC(=O)[C@@H](N)CCCNC(=N)N)C(C)C)[C@@H](C)O)C(=O)N[C@@H](C)C(=O)N[C@@H](CCCCN)C(=O)N[C@@H](C)C(=O)N[C@H](C(=O)N[C@@H](CC(=O)O)C(=O)N[C@@H](Cc1ccccc1)C(=O)O)C(C)C | 619 | – |
| CC[C@H](C)[C@H](NC(=O)[C@@H]1CCCN1C(=O)[C@H](C)NC(=O)[C@H](CC(C)C)NC(=O)[C@H](CC(C)C)NC(=O)[C@H](CCCNC(=N)N)NC(=O)[C@H](Cc1c[nH]c2ccccc12)NC(=O)CNC(=O)[C@H](CCCCN)NC(=O)[C@@H](N)CO)C(=O)N[C@H](C(=O)N[C@@H](C)C(=O)N[C@@H](Cc1ccc(O)cc1)C(=O)N[C@@H](C)C(=O)N[C@@H](CCC(N)=O)C(=O)O)[C@@H](C)O | 0.4 | – |
| CC[C@H](C)[C@H](NC(=O)[C@H](CC(C)C)NC(=O)[C@H](Cc1c[nH]cn1)NC(=O)[C@H](CCCNC(=N)N)NC(=O)CNC(=O)CNC(=O)[C@H](CCCCN)NC(=O)[C@@H](NC(=O)[C@@H](N)C(C)C)[C@@H](C)CC)C(=O)N[C@@H](Cc1ccccc1)C(=O)O | – | 17.5 |
| CC(C)C[C@H](NC(=O)[C@@H](NC(=O)[C@H](CCC(N)=O)NC(=O)[C@H](CC(C)C)NC(=O)[C@H](CCCNC(=N)N)NC(=O)[C@H](CC(=O)O)NC(=O)[C@H](Cc1ccccc1)NC(=O)[C@@H](NC(=O)[C@@H](N)C(C)C)[C@@H](C)O)C(C)C)C(=O)O | – | 1.13 |
| CC(C)C[C@H](NC(=O)[C@H](CCCNC(=N)N)NC(=O)[C@@H](N)Cc1ccc(O)cc1)C(=O)NCC(=O)N[C@@H](C)C(=O)N[C@H](C(=O)N[C@@H](CCC(N)=O)C(=O)N[C@@H](CC(N)=O)C(=O)N[C@@H](CCC(=O)O)C(=O)N[C@H](C(=O)O)C(C)C)C(C)C | – | 0.217 |
| CC(C)[C@H](NC(=O)CNC(=O)[C@H](CO)NC(=O)[C@H](C)NC(=O)[C@H](CCCNC(=N)N)NC(=O)[C@H](CS)NC(=O)[C@H](CCCNC(=N)N)NC(=O)[C@H](CCCNC(=N)N)NC(=O)[C@@H](N)Cc1ccc(O)cc1)C(=O)O | – | 0.634 |
| CC(C)C[C@H](NC(=O)[C@@H](NC(=O)[C@H](CCCCN)NC(=O)[C@H](Cc1ccc(O)cc1)NC(=O)CNC(=O)[C@H](CCC(N)=O)NC(=O)[C@H](C)NC(=O)[C@H](C)N)C(C)C)C(=O)N[C@H](C(=O)O)C(C)C (H-AAQGYKVLV-OH; N-terminus and C-terminus assumed) | – | 6.32 |
| CC(C)C[C@H](NC(=O)[C@H](C)NC(=O)[C@H](CCCNC(=N)N)NC(=O)[C@H](C)N)C(=O)N[C@@H](C)C(=O)N[C@@H](Cc1c[nH]cn1)C(=O)NCC(=O)N[C@H](C(=O)N[C@@H](CCCNC(=N)N)C(=O)N[C@H](C(=O)O)C(C)C)C(C)C (H-ARALAHGVRV-OH; N-terminus and C-terminus assumed) | – | 9.88 |
| CC(C)[C@H](NC(=O)[C@H](CCCNC(=N)N)NC(=O)[C@H](CCC(N)=O)NC(=O)CNC(=O)[C@@H]1CCCN1C(=O)[C@H](CO)NC(=O)[C@H](Cc1ccc(O)cc1)NC(=O)[C@H](CCC(N)=O)NC(=O)[C@@H](N)Cc1ccccc1)C(=O)O (H-FQYSPGQRV-OH) | – | 0.387 |
| CC(C)[C@H](NC(=O)CNC(=O)[C@H](CCCNC(=N)N)NC(=O)[C@@H](NC(=O)[C@H](CS)NC(=O)[C@@H](NC(=O)[C@H](C)NC(=O)[C@H](C)NC(=O)[C@H](CCCNC(=N)N)NC(=O)[C@@H](N)Cc1ccccc1)C(C)C)[C@@H](C)O)C(=O)O (H-FRAAVCTRGV-OH; N-terminus and C-terminus assumed) | – | 0.486 |
| CC[C@H](C)[C@H](NC(=O)[C@H](CC(C)C)NC(=O)[C@H](CCCNC(=N)N)NC(=O)[C@H](C)NC(=O)[C@@H]1CCCN1C(=O)[C@H](CCCCN)NC(=O)[C@H](CCCNC(=N)N)NC(=O)CN)C(=O)N[C@H](C(=O)O)C(C)C (H-GRKPARLIV-OH; N-terminus and C-terminus assumed) | – | 2.04 |
| CC[C@H](C)[C@H](N)C(=O)N[C@@H](CCCNC(=N)N)C(=O)N[C@@H](CO)C(=O)N[C@@H](CC(C)C)C(=O)N[C@H](C(=O)N[C@@H](CCC(=O)O)C(=O)N[C@@H](CCCNC(=N)N)C(=O)N[C@@H](CC(C)C)C(=O)N[C@@H](Cc1ccc(O)cc1)C(=O)N[C@H](C(=O)O)[C@@H](C)CC)[C@@H](C)O (H-IRSLTERLYI-OH; N-terminus and C-terminus assumed) | – | 6.22 |
| CC[C@H](C)[C@H](NC(=O)[C@H](CC(C)C)NC(=O)[C@H](CCCNC(=N)N)NC(=O)[C@H](C)NC(=O)[C@@H]1CCCN1C(=O)[C@H](CCCCN)NC(=O)[C@@H](N)CCCNC(=N)N)C(=O)N[C@H](C(=O)N[C@@H](Cc1ccccc1)C(=O)O)C(C)C (H-RKPARLIVF-OH; N-terminus and C-terminus assumed) | – | 8.28 |
| CC[C@H](C)[C@H](NC(=O)[C@H](CCC(N)=O)NC(=O)CNC(=O)CNC(=O)CNC(=O)[C@@H]1CCCN1C(=O)[C@H](Cc1ccccc1)NC(=O)[C@H](CCCCN)NC(=O)[C@@H](N)C(C)C)C(=O)N[C@H](C(=O)O)C(C)C (H-VKFPGGGQIV-OH; N-terminus and C-terminus assumed) | – | 0.417 |
| CC(C)C[C@H](NC(=O)[C@@H](NC(=O)[C@H](CCCCN)NC(=O)[C@H](Cc1ccc(O)cc1)NC(=O)CNC(=O)[C@H](CCC(N)=O)NC(=O)[C@H](C)NC(=O)[C@H](C)NC(=O)[C@@H](N)Cc1ccc(O)cc1)C(C)C)C(=O)N[C@H](C(=O)O)C(C)C (H-YAAQGYKVLV-OH; N-terminus and C-terminus assumed) | – | 9.21 |
